From article PMC6450887, “Metabolic resistance of the D-peptide RD2 developed for direct elimination of amyloid-β oligomers” (Scientific Reports, 2019)
Values joined by “and” are separate entries in the source; they are usually repeats but may differ in a detail not shown here. Identical values can stand only once. Each block holds one compound with its values, some of them ahead of it. Non-standard residues stand in square brackets, D forms with d. Residues, ends and D or L forms follow the SMILES beside them. No end group written: not given here. *: point of attachment. X1 = C[C@H](O)[C@H](C(=O)*)N1CN2CCC[C@@H]2C1=O

Assays:
[1] = target: T1, human D-amino acid oxidase (hDAAO) (Homo sapiens, UniProt P14920); experiment: hDAAO inhibition assay; type: biochemical; settings: 7.5 mM D-serine, 30 min
T1 construct: made in house; host or cells: E. coli
Procedure: (§1) For hDAAO activity and inhibition assays, the tested substances were incubated with 0.17 U/mL recombinant hDAAO, 0.1 U/mL horseradish peroxidase (Roche, Switzerland) and 4 µM flavin adenine dinucleotide (FAD) in 50 mM sodium phosphate buffer (pH 7.4). […] The Amplex UltraRed reagent is a fluorogenic substrate for horseradish peroxidase that reacts with the hydrogen peroxide produced by the oxidative deamination of D-amino acids to build Amplex UltroxRed, a fluorescent reaction product, which served as indicator for hDAAO activity. All enzymatic assays were conducted at room temperature in 96-well plate format using an automated liquid-handler system (epMotion 5075; Eppendorf, Hamburg, Germany). Recombinant hDAAO was overexpressed in E. coli and purified as previously reported.
To examined whether RD2 inhibits hDAAO activity, the enzyme was incubated with 7.5 mM D-serine alone and together with 0 to 625 µM RD2 or sodium benzoate (a known hDAAO inhibitor)[30], horseradish peroxidase and FAD for 30 min and the fluorescence signal of Amplex UltroxRed was recorded. hDAAO residual activity in the presence of different concentrations of RD2 or sodium benzoate was expressed relatively to the values recorded in the absence of ligands (set as 100% activity). The data were fit to a four-parameter equation to determine the curve top, bottom, IC50 and Hill slope.

[2] = Stability in simulated intestinal fluid (SIF), RP-HPLC; type: in vitro ADME; settings: a few seconds
Procedure: (§2) The preparation of the media was performed as described before in Elfgen et al.[24]. Preparation of simulated gastric and intestinal fluid (SGF & SIF) was done according to the European Pharmacopoeia 7.0. Plasma samples were obtained from human blood of a volunteer donor. Pooled human liver microsomes were purchased from Sekisui XenoTech (Kansas City, USA; H1000, Lot: 0710494 and 1210270; H1500, Lot: 1210079), from Sigma-Aldrich (St. Louis, USA; M0692, Lot: SLBL1433V; M0567, Lot: SLBR2706V and SLBN7300V) and from Gibco, Thermo Fisher Scientific (Waltham, USA; HMMCPL, Lot: PL050; HMMCPM, Lot: PL039). Pooled Sprague Dawley rat liver microsomes were purchased from Sigma-Aldrich (St. Louis, USA; M9066, Lot: SLBN0707V) and from Gibco, Thermo Fisher Scientific (Waltham, USA; RTMCPL, Lot: RT053). Pooled cynomolgus monkey liver microsomes were purchased from Gibco, Thermo Fisher Scientific (Waltham, USA; MKMCPL, Lot: MK062) and from Sekisui XenoTech (Kansas City, USA; P2000, Lot: 1210334). The liver microsomes were diluted in an NADPH regenerating system (NRS).
(§3) For the stability tests, 150 µM RD2 or L-RD2 was incubated in SGF, SIF, human plasma and human liver microsomes in triplicate at 37 °C with slight shaking for different time periods. To prevent microbial contaminations in long-term plasma incubations, 0.1% sodium azide was added to the solutions. Microsomal long-term activity was examined by incubating microsomes without peptide for up to 24 h and adding L-RD2 after 8 and 24 h. The ability to degrade L-RD2 served as indicator for their activity. For the comparison of RD2 metabolite profiles across species, 150 µM RD2 was incubated in human, rat and cynomolgus liver microsomes at 37 °C for 2 and 24 h. […]
(§4) For sample analysis from stability tests (see 2.3), mobile phases were acetonitrile (A) and water (B) each supplemented with 0.15% trifluoroacetic acid (TFA) (v/v). The samples were measured isocratically at 10% solvent A for 30 min. […] A chromatographic metabolite profile of L-RD2 in SIF was recorded with the same mobile phases but using a gradient from 0 to 30% solvent A in 30 min.

[3] = Stability in simulated gastric fluid (SGF), RP-HPLC; type: in vitro ADME; settings: 37 °C, read-out: peptide degraded
Procedure: as §2, with “The liver microsomes were diluted in an NADPH regenerating system (NRS).” left out
as §4

[4] = Stability in human liver microsomes, RP-HPLC / UHPLC-ESI-QTOF-MS; type: in vitro ADME
Procedure: as §2
(§5) For the stability tests, 150 µM RD2 or L-RD2 was incubated in SGF, SIF, human plasma and human liver microsomes in triplicate at 37 °C with slight shaking for different time periods. To prevent microbial contaminations in long-term plasma incubations, 0.1% sodium azide was added to the solutions. Microsomal long-term activity was examined by incubating microsomes without peptide for up to 24 h and adding L-RD2 after 8 and 24 h. The ability to degrade L-RD2 served as indicator for their activity. For the comparison of RD2 metabolite profiles across species, 150 µM RD2 was incubated in human, rat and cynomolgus liver microsomes at 37 °C for 2 and 24 h. The peptides were extracted by precipitating the proteins with trichloroacetic acid (TCA) and subsequent centrifugation, as described previously in Elfgen et al.[24]. Peptides immediately extracted from the media and precipitated media without peptides served as controls.
For sample analysis from stability tests (see 2.3), mobile phases were acetonitrile (A) and water (B) each supplemented with 0.15% trifluoroacetic acid (TFA) (v/v). The samples were measured isocratically at 10% solvent A for 30 min. This run conditions allowed us to detect smallest chemical changes including the differentiation between the original compound and a deamidated version (Fig. S1). RD2 and L-RD2 can potentially be deamidated at two sites, the C-terminus and the asparagine at position seven. Peak areas of the unmetabolized peptides after different incubation times were normalized to the peptides’ peak areas after direct extraction from the media. […] A chromatographic metabolite profile of L-RD2 in SIF was recorded with the same mobile phases but using a gradient from 0 to 30% solvent A in 30 min. […]

[5] = Stability in human plasma, RP-HPLC; type: in vitro ADME; settings: female, 37 °C
Procedure: as §2, §5
For sample analysis from stability tests (see 2.3), mobile phases were acetonitrile (A) and water (B) each supplemented with 0.15% trifluoroacetic acid (TFA) (v/v). The samples were measured isocratically at 10% solvent A for 30 min. This run conditions allowed us to detect smallest chemical changes including the differentiation between the original compound and a deamidated version (Fig. S1). RD2 and L-RD2 can potentially be deamidated at two sites, the C-terminus and the asparagine at position seven. Peak areas of the unmetabolized peptides after different incubation times were normalized to the peptides’ peak areas after direct extraction from the media. […] A chromatographic metabolite profile of L-RD2 in SIF was recorded with the same mobile phases but using a gradient from 0 to 30% solvent A in 30 min.

[6] = test system: Rat PC12 (pheochromocytoma) cells; experiment: MTT cell viability assay; type: cell-based; settings: 0.125% Triton X-100, PC12 cells, 24 h, MTT
Procedure: (§6) Rat PC12 (pheochromocytoma) cells (Leibniz Institute DSMZ, Braunschweig, Germany) were cultivated in Dulbecco’s Modified Eagle Medium (DMEM) supplemented with 10% fetal bovine serum, 5% horse serum and 1% penicillin-streptomycin. 10,000 cells per well were seeded on collagen A-coated 96-well plates (Thermo Fisher Scientific, Waltham, USA) and incubated in a 95% humidified atmosphere with 5% CO2 at 37 °C for 24 h. Samples with untreated RD2 and RD2 or HSM-3 purified from human liver microsomes (see 2.8) in 10 mM sodium phosphate buffer (pH 7.4) were prepared. Buffer without peptides and Triton X-100 (cytotoxic compound) served as controls. The samples were added to the PC12 cells in quadruple and incubated in 95% humidified atmosphere with 5% CO2 at 37 °C for 24 h. Final concentrations were 2 µM untreated RD2, purified RD2, purified HSM-3 and 0.125% Triton X-100. Cell viability was then measured using the Cell Proliferation Kit I (MTT) (Roche, Basel, Switzerland) according to the manufacturer’s instruction. The final absorbance of the formazan product was determined as the absorbance at 570 nm subtracted by the absorbance at 660 nm. All results were normalized to cells that were treated with buffer only. The experiments were performed in triplicate.

CYP1A = target: T2, CYP1A (Homo sapiens, UniProt P05177); experiment: CYP isoform inhibition in human liver microsomes (Cyprotex); settings: human, human liver microsomes, probe ethoxyresorufin (0.5 µM)
T2 sequence (P05177 2-516): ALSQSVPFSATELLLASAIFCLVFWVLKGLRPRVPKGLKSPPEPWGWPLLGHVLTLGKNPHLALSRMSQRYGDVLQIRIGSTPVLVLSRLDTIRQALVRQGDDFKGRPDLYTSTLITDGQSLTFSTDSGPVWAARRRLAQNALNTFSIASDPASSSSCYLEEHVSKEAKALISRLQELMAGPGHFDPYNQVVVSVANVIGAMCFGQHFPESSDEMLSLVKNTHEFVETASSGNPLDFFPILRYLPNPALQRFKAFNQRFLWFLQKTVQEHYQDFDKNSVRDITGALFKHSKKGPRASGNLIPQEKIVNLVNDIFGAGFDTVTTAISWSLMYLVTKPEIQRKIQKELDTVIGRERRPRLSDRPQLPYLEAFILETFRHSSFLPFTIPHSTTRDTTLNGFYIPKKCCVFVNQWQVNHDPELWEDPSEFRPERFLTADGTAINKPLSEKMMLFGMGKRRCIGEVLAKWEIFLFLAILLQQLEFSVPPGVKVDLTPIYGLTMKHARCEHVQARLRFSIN
Procedure: The experiments were performed by Cyprotex. […] The reactions were terminated by methanol and the generated metabolites were monitored by LC-MS/MS or fluorescence. […] All assays were performed sevenfold. […] For all other substrates, the termination plates were centrifuged at 2,500 rpm and 4 °C for 30 min and aliquots of the supernatants were combined and transferred to fresh 96-well plates. Formic acid in deionized water (final concentration 0.1%) containing internal standard was added to the supernatants prior to cassette analysis by LC-MS/MS. A decrease in the formation of the metabolite compared to the vehicle control was used to calculate the IC50 values.

[7] = target: T1, human D-amino acid oxidase (hDAAO); experiment: hDAAO activity assay (substrate test); type: biochemical; settings: 0.2 mM D-alanine as substrate, 2 h incubation
Procedure: as §1
To investigate whether RD2 acts as substrate for hDAAO, the enzyme was incubated with 2.9 mM RD2, horseradish peroxidase and FAD for up to 6 h and the fluorescence signal of the Amplex UltroxRed reagent was measured (sample values). Positive control measurements using 0.2 mM D-alanine as substrate were performed in parallel. Additionally, negative control measurements without substrates were performed. The relative emission at 590 nm was determined by subtracting control measurements to sample values.

MTT cell viability assay = type: cell-based, rat; settings: cell viability
Procedure: as §6

[8] = Comparison of RD2 metabolite profiles across species: human liver microsomes; type: in vitro ADME
Procedure: as §2, §5
For the comparison of RD2 metabolite profiles across species (see 2.3), mobile phases were acetonitrile (A) and water (B) each supplemented with 0.1% TFA. The gradient ran from 0 to 100% solvent A and is described in detail in Table S1. The chromatographic RD2 metabolite profiles were screened for potential human-specific metabolites. RD2 and the major RD2 metabolite present after 24 h of incubation in human liver microsome batches 7 and 8, HSM-3, were purified by RP-HPLC. Mobile phases were acetonitrile (A) and water (B) each supplemented with 0.15% TFA. The samples were separated isocratically at 10% solvent A for 30 min. RD2 as well as HSM-3 were collected and the samples were freeze-dried subsequently. The amount of the purified HSM-3 was calculated based on a calibration curve of 10 to 100 µM RD2 extracted from human liver microsomes.

[9] = Comparison of RD2 metabolite profiles across species: cynomolgus liver microsomes; type: in vitro ADME, cynomolgus monkey; settings: cynomolgus microsome batches, LC-MS
Procedure: as §2, §3
(§7) For the comparison of RD2 metabolite profiles across species (see 2.3), mobile phases were acetonitrile (A) and water (B) each supplemented with 0.1% TFA. […] The amount of the purified HSM-3 was calculated based on a calibration curve of 10 to 100 µM RD2 extracted from human liver microsomes.

[10] = Comparison of RD2 metabolite profiles across species: rat liver microsomes; type: in vitro ADME; settings: rat microsome batches, LC-MS
Procedure: as §2, §3, §7

[11] = Stability of purified HSM-3 stored in solution (MALDI-MS, UHPLC-ESI-QTOF-MS); type: physicochemical; settings: stored in solution at low temperatures

T1 sequence (P14920 whole entry): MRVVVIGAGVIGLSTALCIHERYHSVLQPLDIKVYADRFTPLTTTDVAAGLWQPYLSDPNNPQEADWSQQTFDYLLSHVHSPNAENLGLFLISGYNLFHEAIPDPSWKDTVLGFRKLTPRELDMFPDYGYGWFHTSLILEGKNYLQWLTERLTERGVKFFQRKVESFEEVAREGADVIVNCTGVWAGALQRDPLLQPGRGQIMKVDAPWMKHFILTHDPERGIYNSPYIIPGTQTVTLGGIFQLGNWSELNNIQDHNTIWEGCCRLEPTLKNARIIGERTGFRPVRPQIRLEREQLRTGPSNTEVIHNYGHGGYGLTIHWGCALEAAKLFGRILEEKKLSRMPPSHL

Compound: O=C([O-])c1ccccc1.[Na+] [sodium benzoate]
decrease in hDAAO activity ([1]; 625 µM): 92.8 ± 0.1% and 93 ± 0.1% | IC50 ([1]; read-out: IC50 hDAAO (four-parameter fit)): 7 µM

Compound: Triton X-100 [reference compound]
cell viability [6]: 14 ± 1%

Compound: O=c1cc(-c2ccccc2)oc2c1ccc1ccccc12 [Alpha-naphthoflavone, reference compound]
IC50 (CYP1A): 0.0781 µM

Compound: C[C@@H](N)C(=O)O [D-alanine]
recorded emission at 590 nm [7]: 61125 ± 2120 AU

More lines, main results first:

detection of the peptide after incubation in SIF [2]: could not be detected
Compound: KLVFFRRRRRR-NH2

metabolised at 24 h, 150 µM [3]: 23 ± 4% | metabolised at 24 h, 150 µM ([5]; 150 µM, within one day, read-out: peptide degraded): 92 ± 4% | half-life at 150 µM ([5]; read-out: half-life (first order kinetics fit) (converted)): 2 h
Compound: PTLHTHNRRRRR-NH2 [L-RD2, reference compound]
deamidation in human liver microsomes ([4]; UHPLC-ESI-QTOF-MS): increasingly metabolized to the one-fold deamidated species | metabolised at 0.5 h, 150 µM ([4]; pooled human liver microsomes, 150 µM, 37 °C, within 30 min, read-out: peptide degraded): 87 ± 1% | metabolization in SIF ([2]; 150 µM): completely metabolized within a few seconds

metabolite relative to the parent compound ([8]; human microsome batches 7 and 8, 2 h): 1% and 5% | metabolite relative to the parent compound ([8]; human microsome batches 7 and 8, 24 h): 31% and 52% | detection of HSM-3 after incubation of RD2 ([8]; other six human microsome batches, LC-MS): not detectable | detection of HSM-3 after incubation of RD2 [9]: not detectable | detection of HSM-3 after incubation of RD2 [10]: not detectable
Compound: CC(C)C[C@@H](NC(=O)[C@@H]([C@H](C)O)N1CN2CCC[C@@H]2C1=O)C(=O)N[C@H](Cc1c[nH]cn1)C(=O)N[C@@H](C(=O)N[C@H](Cc1c[nH]cn1)C(=O)N[C@H](CC(N)=O)C(=O)N[C@H](CCCNC(=N)N)C(=O)N[C@H](CCCNC(=N)N)C(=O)N[C@H](CCCNC(=N)N)C(=O)N[C@H](CCCNC(=N)N)C(=O)N[C@H](CCCNC(=N)N)C(N)=O)[C@H](C)O [HSM-3] (X1-[dL][dH][dT][dH][dN][dR][dR][dR][dR][dR]-NH2; C-terminus assumed)
viability at 2 µM (MTT cell viability assay): 99 ± 3% | stability of purified HSM-3 in solution [11]: instable and reacted back to RD2
